These are literature values, as cited in patent US20050079136A1, “Aerosol formulations of delta tetrahydrocannabinol” (priority 2001, published 2005).

For this data set, the system named is children with cancer.

Turning to `CCCCCc1cc(O)c2c(c1)OC(C)(C)[C@@H]1CC=C(C)C[C@@H]21` [Δ^8 THC, Δ^8 Tetrahydrocannabinol], the incidence of nausea entry was “greatly reduced” and the side effects entry is recorded as “no significant side effects”.
